Legend:
p100/p120 [1] = assay: p100/p120 electrophoretic mobility (band shift) by immunoblotting, MDCK I cells; type: cell-based; conditions: 30 minutes
Protocol: (§1) The migration of the cellular proteins p100 and p120 during electrophoresis is increased following PDB-treatment of MDCK I cells. PDB (phorbol-12,13-dibutyrate) is a pharmacological activator of protein kinase C. MDCK I cells are a kidney derived epithelial cell line, with particularly well developed junctional complexes. Cells treated for 30 minutes with either 200 nM PDB (+) or vehicle (−) were then lysed into Laemmli sample buffer, and separated by electrophoresis using 6% acrylamide gels. Proteins were transferred to nitrocellulose and probed with antibodies to p100/p120, and then reprobed with E-cadherin and paxillin antibodies.
MDCK strain I and II cells were provided by Barry Gumbiner (memorial Sloan-Kettering Cancer Center, NY). LLC-PK1 and Caco-2 cells were obtained from the European Collection of Animal Cell Cultures. All cells were maintained at 37° C. under 5% CO2 in humidified air. MDCK strain I and II cells were maintained in MEM containing 10% FCS, 100 U/ml penicillin, 100 μg/ml streptomycin and 2 mM L-glutamine. Caco-2 cells were maintained in MEM containing 15% FCS, 1% non-essential amino acids and 1 μg/ml bovine insulin (Sigma I-6634). LLC-PK1 cells were grown in M199 (Gibco), 10% FCS, 100 U/ml penicillin, 100 μg/ml streptomycin and 2 mM L-glutamine. For whole cell lysate analysis, 10^5 cells were plated on 6.5 mm diameter, 0.4 μm, polycarbonate Transwell filters from Costar, in 0.25 ml of medium. The basolateral chamber contained 0.75 ml of medium. For immunoprecipitation, 5×10^5 cells were plated onto 24 mm Transwell filters, in 2 ml of medium, with 3 ml of medium in the lower chamber. Cells were used 4-7 days after plating. Tissue culture materials were from Gibco. Porcine brain endothelial cells were isolated and grown by modifications of a previously published procedure (Rubin et al., 1991). Brain capillary fragments were plated on dishes coated with rat tail collagen and human fibronectin. The cultures were fed every other day with growth medium composed of 50% astrocyte-conditioned medium and 50% Dulbecco's Modified Eagle Medium containing 10% plasma-derived serum, 125 μg/ml heparin, antibiotics and glutamine. They were incubated in a humidified atmosphere of 10% CO2 at 37° C. When the endothelial cells were approximately 50% confluent (after 4-6 days in culture), they were trypsinized and plated onto collagen-coated polycarbonate Transwell filters (6.5 mm diameter, 0.4 μm pore size, tissue culture treated, Costar Corp, Cambridge, Mass., U.S.A.) in the same medium (250 μl apically, 750 μl basolaterally). After 2-3 days on filters, the medium was switched to a 1:1 mixture of astrocyte-conditioned medium and a Dulbecco's Modified Eagle Medium-based, chemically defined medium (‘N2’, Rubin et al., 1991; Bottenstein and Sato, 1979). The final concentration of plasma-derived serum was 5%. Human umbilical vein endothelial cells were from Clonetics.
Whole cell lysates were prepared by rapidly replacing the culture medium in 6.5 mm with hot Laemmli sample buffer, followed by heating at 100° C. for 5 minutes. Immunoprecipitations were carried out at 4° C. Confluent monolayers of cells were washed rapidly with ice cold PBS (containing 0.9 mM CaCl2 and 0.5 mM MgCl2) before addition of 0.5 ml of the appropriate buffer. The filters were then gently scraped, and the lysate was removed and centrifuged at 14000× g. The supernatant was precleared with 10% (w/v) protein A-Sepharose in lysis buffer for 30-60 minutes. Appropriate primary antibodies were added to the lysate, and after 2-3 hours the immunecomplex was isolated, using rabbit anti-mouse secondary antibodies (Jackson Immunoresearch Labs Inc., West Grove, Pa.) and protein A-Sepharose. The beads were washed fives times with lysis buffer, and the bound protein was solubilized in SDS-sample buffer, followed by heating at 100° C. for 5 minutes.
Cell extracts or immunoprecipitates in SDS sample buffer were resolved by SDS-PAGE. […]

E-cadherin = E-cadherin electrophoretic mobility by immunoblotting, MDCK I cells; type: cell-based; conditions: 200 nM PDB, 30 minutes
Protocol: as §1
(§2) Cell extracts or immunoprecipitates in SDS sample buffer were resolved by SDS-PAGE. The slab gels were then equilibrated in buffer comprising; 48 mM Tris, 39 mM glycine, 20% methanol and 0.03% SDS. Proteins were transferred to nitrocellulose filters (Hybond ECL; Amersham), which were Ponceau S stained and then blocked for 2 hours at 37° C. with 1% BSA in PBS containing 0.05% Tween-20. Filters were then probed with p120 antibody, at a dilution of 1:2500. […] The filters were then extensively washed in PBS/0.5% Tween-20, and immunoreactive bands were detected by enhanced chemiluminescence (Amersham) following the manufacturers instructions.

paxillin = paxillin electrophoretic mobility by immunoblotting, MDCK I cells; type: cell-based; conditions: 200 nM PDB, 30 minutes
Protocol: as §1, §2

p100/p120 [2] = assay: p100/p120 electrophoretic mobility, LLC-PK1 cells; type: cell-based, porcine; conditions: 200 nM PDB, 30 minutes
Protocol: (§3) p100 and p120 electrophoretic mobility is affected by PDB in a number of different epithelial cell lines. LLC-PK1, (a porcine kidney cell line), MDCK strain II cells and gut-derived Caco-2 cells were treated with or without 200 nM PDB for 30 minutes, lysed into Laemmli sample buffer, separated by electrophoresis and analysed by immunoblotting.
(§4) MDCK strain I and II cells were provided by Barry Gumbiner (memorial Sloan-Kettering Cancer Center, NY). LLC-PK1 and Caco-2 cells were obtained from the European Collection of Animal Cell Cultures. All cells were maintained at 37° C. under 5% CO2 in humidified air. MDCK strain I and II cells were maintained in MEM containing 10% FCS, 100 U/ml penicillin, 100 μg/ml streptomycin and 2 mM L-glutamine. Caco-2 cells were maintained in MEM containing 15% FCS, 1% non-essential amino acids and 1 μg/ml bovine insulin (Sigma I-6634). LLC-PK1 cells were grown in M199 (Gibco), 10% FCS, 100 U/ml penicillin, 100 μg/ml streptomycin and 2 mM L-glutamine. For whole cell lysate analysis, 10^5 cells were plated on 6.5 mm diameter, 0.4 μm, polycarbonate Transwell filters from Costar, in 0.25 ml of medium. The basolateral chamber contained 0.75 ml of medium. For immunoprecipitation, 5×10^5 cells were plated onto 24 mm Transwell filters, in 2 ml of medium, with 3 ml of medium in the lower chamber. Cells were used 4-7 days after plating. […]

p100/p120 [3] = assay: p100/p120 electrophoretic mobility, Caco-2 cells; type: cell-based; conditions: 200 nM PDB, 30 minutes
Protocol: as §3, §4

p100/p120 [4] = assay: p100/p120 electrophoretic mobility, bovine aortic endothelial cells (BAECs); type: cell-based; conditions: 200 nM PDB, 30 minutes
Protocol: The mobility of p100 and p120 during electrophoresis is also altered by PDB-treatment in endothelial cells. The p100/p120 proteins from human umbilical vein endothelial cells (HUVECs), bovine aortic endothelial cells (BAECs) and primary pig brain endothelial cells (PBECs) were all affected by PDB-treatment. Cells were treated with or without 200 nM PDB for 30 minutes, lysed into Laemmli sample buffer, separated by electrophoresis and analysed by immunoblotting with antibodies recognising p100 and p120. […] Thus the effect of PKC activation (via PDB) on p100/p120 mobility is a widespread phenomenon.
Whole cell lysates were prepared by rapidly replacing the culture medium in 6.5 mm with hot Laemmli sample buffer, followed by heating at 100° C. for 5 minutes. Immunoprecipitations were carried out at 4° C. Confluent monolayers of cells were washed rapidly with ice cold PBS (containing 0.9 mM CaCl2 and 0.5 mM MgCl2) before addition of 0.5 ml of the appropriate buffer. The filters were then gently scraped, and the lysate was removed and centrifuged at 14000× g. […]
Cell extracts or immunoprecipitates in SDS sample buffer were resolved by SDS-PAGE. […] The filters were then extensively washed in PBS/0.5% Tween-20, and immunoreactive bands were detected by enhanced chemiluminescence (Amersham) following the manufacturers instructions.

Structure (SMILES): CCCC(=O)O[C@@H]1[C@@H](C)[C@@]2(O)[C@@H](C=C(CO)C[C@]3(O)C(=O)C(C)=C[C@@H]23)[C@@H]2C(C)(C)[C@]12OC(=O)CCC [PDB, Phorbol-12,13-dibutyrate]
- migration of p100 and p120 during electrophoresis (p100/p120 [1]; MDCK I cells, 200 nM PDB): migrate as faster, tighter bands
- concentration of maximal effect on p100/p120 mobility (p100/p120 [1]; MDCK I, PDB 1 to 200 nM): 100 nM
- effect on E-cadherin migration (E-cadherin): no effect
- effect on paxillin migration (phosphorylation) (paxillin): upward band shift
- migration of p100 and p120 (p100/p120 [2]): increased markedly
- migration of p100 and p120 (p100/p120 [3]): less striking, but still present
- mobility of p100 and p120 (p100/p120 [4]): the mobility of p100 and p120 increased

Reference: patent publication US6407058B1, “Modifying the permeability of physiological barriers” (Eisai Co., Limited, priority 1996, dated 2002)
